Test results from patent publication US20100286188A1, “MEANS FOR IMPROVING COGNITIVE FUNCTIONS AND MEMORY BASED ON HYDROGENATED PYRIDO(4,3-B)INDOLES (VARIANTS), PHARMACOLOGICAL MEANS BASED THEREON AND METHOD FOR THE USE THEREOF” (priority 2006, published 2010).

How the values were obtained:
[1] = tested on: healthy, mature C57BL/6 male mice; assay: Object location memory test (recognition of the new location of a known object); format: in vivo; conditions: for dose with maximally expressed stimulating/activating effect on memory: mice, intragastric
Source text: Method. In order to study the action of substances on the memory of animals in which there had been no prior destruction of neurons, we used the test of recognition of the new location of a known object (“Object location memory test”, B. Kolb, K. Buhrmann, R. McDonald and R. Sutherland, Cereb. Cortex, 6 (1994), pp 664-680; D. Gaffan, Eur. J. Neurosci., 4 (1992), pp. 381-388; T. Steckler, W. H. I. M. Drinkenburgh, A. Sahgal and J. P. Aggleton, Prog. Neurobiol., 54 (1998), pp. 289-311). This Object Recognition Test is used to study memory. It provides a reliable, easy-to-use assessment tool for analyzing the effects of test compounds on memory in animals. The test can be applied to normal healthy animals (controls), as well as to animals that are models of various neurodegenerative diseases.
Experiments were performed on healthy, mature C57BL/6 male mice aged 3-5 months and weighing 20-24 g. Male mice were used to exclude any possible negative effects resulting from hormonal changes associated with […] in female mice. The animals were kept in a vivarium with 5 to a cage in 12/12 hours light regime with light from 08.00 to 20.00 and free access to water and food. The observation chamber was made from white opaque organic glass and measured 48×38×30 cm. Brown glass vials with a diameter of 2.7 cm and a height of 5.5 cm were used as the test objects. 2-3 minutes before introducing an animal, the chamber and test objects were rubbed with 85% alcohol. The animals were always placed in the centre of the chamber.
Dimebon was dissolved in distilled water and administered intragastrically 1 hour before training in a volume of 0.05 ml per 10 g of animal weight. A corresponding volume of solvent was administered to control animals.
On the first day, the mice were brought into the test room and acclimatized for 20-30 minutes. After this, each animal was placed for 10 min. in an empty behavior chamber, which had been pretreated with alcohol, for familiarization. The animal was then replaced in the cage and taken to the vivarium.
On the following day, the same mice were brought into the test room, acclimatized for 20-30 min. and then given dimebon solution intragastrically. One hour after administration of the substance, an animal was placed in the behavior chamber, on the bottom of which two identical objects for recognition (glass vials) were placed on a diagonal at a distance of 14.5 cm from the corners. The training time for each animal was 20 min. After 20 min. it was replaced in the cage and returned to the vivarium.
Testing was performed 48 hours after training. For this purpose, after acclimatization an animal was placed for 1 min. in the chamber for refamiliarization. After a minute it was removed and one object was placed on the bottom of the chamber in a location known to the animal, and the other in a new location. The time spent investigating each object separately over a period of 10 min. was recorded with an accuracy of 0.1 s using two electronic stopwatches. The behavior of the animals was observed through a mirror. Purposeful approach of an animal's nose towards an object at a distance of 2 cm or direct touching of an object with the nose was regarded as a positive investigative reaction.
Since significant variations in object investigation time between animals are observed in this test, we calculated the percent investigation time for each mouse using the formula tNl/(tKl+tNl)×100. The total time spent on investigation of the two objects was taken as 100%. The results were further processed using the Student t-test method.

mice [2] = assay: Acute toxicity on intragastric administration; format: in vivo; conditions: intragastric administration
Method: (§1) Investigation of the acute toxicity of Memantine® established that the death of the animals is observed after its intragastric administration in a dose of 300 mg/kg. The LD50 for mice on intragastric administration of Nootropil® (piracetam) is 8000 mg/kg.

mice [3] = conditions: intragastric administration, source not stated; cited from earlier work
[4] = cited from earlier work
[5] = Acute toxicity on intragastric administration; format: in vivo; conditions: mouse, in vivo, po
Method: as §1

rats with a model of AD = conditions: cholinergic neurons damaged by chronic AF64A; cited from earlier work
AD patients = conditions: 20 mg three times daily; cited from earlier work
[6] = dose 2.5 mg/kg, testing 48 hours after training
[7] = dose 0.01 mg/kg intragastrically 1 hour before training, testing 48 hours after training
[8] = dose 0.1 mg/kg intragastrically, testing 48 hours after training

Structure (SMILES)	percent of time on investigation of the object in a known location [1, 6] [%]	percent of time on investigation of the object in a new location [1, 6] [%]	dose with maximally expressed stimulating/activating effect on memory [1] [mg/kg]	dose at which death of the animals is observed (mice [2]) [mg/kg]	LD50 (mice [3]) [mg/kg]	doses with stimulating effect on learning and memory ([4]; active and passive avoidance conditioned response tests, depending on the test) [mg/kg]	maximally effective dose that stimulated learning and memory ([4]; data from the literature) [mg/kg]	stimulating effect on memory, times more active than Nootropil (piracetam) ([1]; compared with literature doses of Nootropil)	memory-enhancing activity relative to Memantine (times higher) ([1]; comparing doses with essentially the same effect (0.01 vs 2.5 mg/kg)) [times]	memory-enhancing activity relative to Memantine (times higher) ([1]; comparing maximally effective doses (0.1 vs 2.5 mg/kg)) [times]	percent of time on investigation of the object in the known location [1, 7] [%]	percent of time on investigation of the object in the new location [1, 7] [%]	percent of time on investigation of the object in the known location [1, 8] [%]	percent of time on investigation of the object in the new location [1, 8] [%]	activating effect on memory ([1]; dose increased to 0.25 mg/kg)	stimulating effect on memory, times more active than Memantine ([1]; overall conclusion)	LD50 [5] [mg/kg]	results in active avoidance conditioned reflex experiment versus control animals (rats with a model of AD)	condition of AD patients (memory and cognitive functions) (AD patients)
CC12CC3CC(C)(C1)CC(N)(C3)C2 [Memantine®, reference compound]	40.6±6.9	59.4±6.9	2.5	300	–	–	–	–	–	–	–	–	–	–	–	–	–	–	–
NC(=O)CN1CCCC1=O [Nootropil® (piracetam), piracetam]	–	–	–	–	8000	200 to 500	200 to 500	–	–	–	–	–	–	–	–	–	–	–	–
Cc1ccc2c(c1)c1c(n2CCc2ccc(C)nc2)CCN(C)C1 [dimebon, 2,8-dimethyl-5-[2-(6-methyl-3-pyridyl)ethyl]-2,3,4,5-tetrahydro-1H-pyrido[4,3-b]indole]	–	–	0.1	–	–	–	–	2000-5000 times	250	25	42.5±4.8	57.5±4.8	37.6	62.4±6.5	activating effect on memory disappears	25-250 times	> 1000	significantly better results	improvement in the condition of AD patients
